The Ki is the dissociation constant of the complex between target and ligand, obtained from inhibition or displacement.

The target of series [1] is T1, Thromboxane A2 (TXA2) receptor (TP receptor) (Homo sapiens, UniProt P21731).
T1 construct: MDS Pharma Services MDSPS PT#: 1083321
T1 sequence (P21731 1-343): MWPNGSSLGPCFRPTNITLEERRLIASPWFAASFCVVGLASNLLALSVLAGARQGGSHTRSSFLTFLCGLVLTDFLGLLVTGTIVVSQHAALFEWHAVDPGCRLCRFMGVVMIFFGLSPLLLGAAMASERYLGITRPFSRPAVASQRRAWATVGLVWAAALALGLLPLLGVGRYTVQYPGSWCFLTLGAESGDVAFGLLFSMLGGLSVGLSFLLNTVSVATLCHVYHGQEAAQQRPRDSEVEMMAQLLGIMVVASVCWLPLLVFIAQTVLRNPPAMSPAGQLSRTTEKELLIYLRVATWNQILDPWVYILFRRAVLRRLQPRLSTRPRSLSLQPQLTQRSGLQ
Description: Radiolabel binding counter screen (MDS Pharma Services). The source says: Compound 1 was counter screened against a broad panel of enzymes and receptors using radiolabel binding studies (see MDS Pharma Services, LeadProfiling and SpectrumScreen, MDSPS PT#: 1083321).

Series [2] has as its system dogs. Description: 14-day repeat-dose oral toxicity study in dogs.
Description: Repeat-dose oral toxicity studies of 7- and 14-days duration have been conducted in rats (up to 600 mg/kg/day) and dogs (up to 200 mg/kg/day).

`Cc1ccc(NC(=O)C2(c3ccc4c(c3)OC(F)(F)O4)CC2)nc1-c1cccc(C(=O)O)c1` [Compound 1, 3-(6-(1-(2,2-difluorobenzo[d][1,3]dioxol-5-yl)cyclopropanecarboxamido)-3-methylpyridin-2-yl)benzoic acid]: in series [1], the Ki was roughly 3 µM. In series [2] (assuming efficacious dose in dogs 0.91 mg/kg b.i.d. (Ctrough at EC90)), the “projected safety margin range from the dog NOAEL” value is reported as 110 ×. Besides, the “low prostate:body weight and prostate:brain weight ratios vs. vehicle control group” value in series [2] (male dogs, 14-day study, all dose levels) was 52-62%.
